Article PMC7926352, “Synthesis, Characterization and In Vitro Evaluation of Novel 5-Ene-thiazolo[3,2-b][1,2,4]triazole-6(5H)-ones as Possible Anticancer Agents” (Molecules, 2021)
Read-outs that look alike come from different tables or passages of the source.

Columns and labels:
Melanoma cell lines = conditions: Melanoma subpanel
SK-MEL-2 = conditions: SK-MEL-2, Melanoma
HT29 = conditions: HT29, Colon cancer
RXF 393 = conditions: RXF 393, Renal Cancer
OVCAR-3 [1] = test system: OVCAR-3
LOX IMVI = conditions: Melanoma
PC-3 = conditions: PC-3, Prostate Cancer
Renal Cancer cell lines [2] = conditions: Renal Cancer subpanel
ACHN = conditions: Renal Cancer
SNB-75 = conditions: SNB-75, CNS Cancer
TK-10 = conditions: TK-10, Renal Cancer
HOP-92 = conditions: HOP-92, NSCLC
[3] = test system: Prostate Cancer cell lines; conditions: Prostate Cancer subpanel
NCI-H226 = assay type: cell-based; conditions: NCI-H226, NSCLC
EKVX = conditions: NSCLC
HL-60 (TB) = conditions: HL-60 (TB), Leukemia
CAKI-1 [4] = test system: CAKI-1
CAKI-1 [5] = conditions: CAKI-1, Renal Cancer
SK-OV-3 = conditions: SK-OV-3, Ovarian Cancer
SF-268 = conditions: SF-268, CNS Cancer
UACC-62 = conditions: UACC-62, Melanoma
SR = conditions: Leukemia
MOLT-4 = conditions: MOLT-4, Leukemia
UACC-257 = conditions: UACC-257, Melanoma
[6] = test system: Ovarian Cancer cell lines; conditions: Ovarian Cancer subpanel
BT-549 = conditions: BT-549, Breast Cancer
OVCAR-3 [7] = conditions: OVCAR-3, Ovarian Cancer
HCT-15 = conditions: HCT-15, Colon cancer
Renal Cancer cell lines [8] = test system: Renal Cancer cell lines
[9] = read-out: GI50, values range inside panel

Ethyl(Z)-4-(3-(4-chloro-2-((6-oxothiazolo[3,2-b][1,2,4]triazol-5(6H)-ylidene)methyl)phenyl)propanamido)benzoate [Compound 2i]
TGI, panel MG_MID (Melanoma cell lines): 25.61 µM | TGI, values range inside panel (Melanoma cell lines): 18.19 to 33.11 µM | GI50 (Melanoma cell lines; read-out: GI50, panel MG_MID): 11.8 µM | GI50 (Melanoma cell lines; [9]): 5.62 to 14.8 µM | CC50 (Melanoma cell lines; read-out: LC50, panel MG_MID): 55.4 µM | GI50 (SK-MEL-2): 14.5 µM | TGI (SK-MEL-2): 33.11 µM | GI50 (HT29): 12 µM | TGI (HT29): 24.54 µM | GI50 (RXF 393): 5.75 µM | TGI (RXF 393): 21.37 µM | CC50 (OVCAR-3 [1]): 55 µM | GI50 (LOX IMVI): 5.62 µM | TGI (LOX IMVI): 18.19 µM | GI50 (PC-3): 11.2 µM | TGI (PC-3): 38.01 µM | TGI, panel MG_MID (Renal Cancer cell lines [2]): 27.13 µM | TGI, values range inside panel (Renal Cancer cell lines [2]): 21.37 to 31.62 µM | GI50 (Renal Cancer cell lines [2]; read-out: GI50, panel MG_MID): 13 µM | GI50 (Renal Cancer cell lines [2]; [9]): 5.75 to 17.4 µM | CC50 (Renal Cancer cell lines [2]; read-out: LC50, values range inside panel): 51.3 to 58.9 µM | GI50 (ACHN): 15.5 µM | TGI (ACHN): 28.84 µM | GI50 (SNB-75): 13.2 µM | TGI (SNB-75): 44.66 µM | GI50 (TK-10): 16.2 µM | TGI (TK-10): 29.51 µM | GI50 (HOP-92): 10.2 µM | TGI (HOP-92): 29.51 µM | TGI, panel MG_MID [3]: 27.11 µM | TGI, values range inside panel [3]: 16.21 to 38.01 µM | GI50 ([3]; read-out: GI50, panel MG_MID): 7.6 µM | GI50 [3, 9]: 3.98 to 11.2 µM | GI50 (NCI-H226): 17 µM | LC50 (50% lethal concentration) (NCI-H226): 67.6 µM | TGI (NCI-H226): 33.11 µM | CC50 (RPMI-8226): 95.5 µM | CC50 (M14): 58.9 µM | GI50 (EKVX): 12.9 µM | TGI (EKVX): 25.70 µM | GI50 (HL-60 (TB)): 12.3 µM | TGI (HL-60 (TB)): 41.68 µM | CC50 (HL-60 (TB); read-out: LC50): > 100 µM | CC50 (CAKI-1 [4]): 55 µM | GI50 (CAKI-1 [5]): 10.5 µM | TGI (CAKI-1 [5]): 23.98 µM | GI50 (SK-OV-3): 19.9 µM | TGI (SK-OV-3): 35.48 µM | CC50 (A498): 56.2 µM | CC50 (HOP-62): 53.7 µM | GI50 (SF-268): 6.02 µM | TGI (SF-268): 28.84 µM | GI50 (UACC-62): 13.8 µM | TGI (UACC-62): 26.30 µM | GI50 (SR): 11 µM | TGI (SR): 79.43 µM | GI50 (MOLT-4): 18.2 µM | TGI (MOLT-4): 52.48 µM | GI50 (UACC-257): 10.5 µM | TGI (UACC-257): 25.70 µM | TGI, panel MG_MID [6]: 31.15 µM | TGI, values range inside panel [6]: 20.89 to 38.90 µM | GI50 ([6]; read-out: GI50, panel MG_MID): 13.7 µM | CC50 (SF-295): 51.3 µM | GI50 (BT-549): 3.8 µM | TGI (BT-549): 15.84 µM | GI50 (OVCAR-3 [7]): 13.8 µM | TGI (OVCAR-3 [7]): 27.54 µM | GI50 (HCT-15): 13.8 µM | TGI (HCT-15): 27.54 µM | CC50 (Renal Cancer cell lines [8]): 55 µM
